Source: patent publication US6586435B2, “Benzimidazolone derivatives displaying affinity at the serotonin and dopamine receptors” (Boehringer Ingelheim Pharma KG, priority 2000, dated 2003)

How the values were obtained:
[1] = target: T1, D4 human receptors (Homo sapiens, UniProt P21917); assay: D4 radioligand receptor binding assay ([3H] YM-09151-2); conditions: compound 10^−7 M, singlicate; membranes from CHO cells; [3H] YM-09151-2 0.15-0.25 nM
T1 construct: expressed in transfected cells; host or cells: CHO cells
T1 sequence (P21917 1-419): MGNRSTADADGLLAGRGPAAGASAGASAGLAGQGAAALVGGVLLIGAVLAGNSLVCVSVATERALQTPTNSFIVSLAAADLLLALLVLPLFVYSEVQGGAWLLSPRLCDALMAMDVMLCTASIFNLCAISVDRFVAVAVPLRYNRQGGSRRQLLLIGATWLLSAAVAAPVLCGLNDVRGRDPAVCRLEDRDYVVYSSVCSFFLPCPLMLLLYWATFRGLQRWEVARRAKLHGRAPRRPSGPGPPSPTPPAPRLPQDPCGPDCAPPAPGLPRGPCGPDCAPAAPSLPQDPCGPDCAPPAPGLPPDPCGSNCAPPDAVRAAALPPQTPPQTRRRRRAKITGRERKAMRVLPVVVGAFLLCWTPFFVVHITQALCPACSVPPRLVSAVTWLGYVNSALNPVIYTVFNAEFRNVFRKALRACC
Description: D4 Radioligand Receptor Binding Assay
Membranes from CHO cells, expressing D4 human receptors were suspended in incubation buffer.
Binding assays were performed in MultiProbe 204 pipetting system (Packard), according to a predetermined mapping, consistent with the software Screen. The compounds were tested in singlicate at one concentration (10^−7 M) in a total volume of 1000 μl (980 μl of diluted membranes, 10 μl DMSO or unlabelled ligand, and 10 μl of [^3H] YM-09151-2 (0.15-0.25 nM). After incubation for 120 minutes at 27° C., the reaction was stopped by rapid filtration through Tomtec Cell Harvester (48 wells) using Filtermat B (presoaked in 0.1% PEI) filters. Filters were washed with ice-cold 50 mM Tris-HCl (pH 7.4) buffer (9×700 μl), dried, covered with MeltiLex B/HS (Wallac) scintillator sheets and heated in oven at 80° C.-90° C. for about 10 minutes, transferred into plastic sample bags (Wallac), sealed and put into 1024 Beta Plate scintillation counter (Wallac). Non-specific binding was determined in the presence of clozapine dissolved in DMSO to a final concentration of 10^−5 M.
(§1) The specific radioligand binding to the receptor was defined by the difference between total binding and non-specific binding, determined in the presence of an excess of unlabelled ligand. Results were expressed as percentage of control specific binding obtained in the presence of the compounds.

[2] = target: T2, 5-HT1A human receptors (Homo sapiens, UniProt P08908); assay: 5-HT1A radioligand receptor binding assay ([3H]-8-OH-DPAT)
T2 construct: expressed in transfected cells; host or cells: CHO cells
T2 sequence (P08908 1-422): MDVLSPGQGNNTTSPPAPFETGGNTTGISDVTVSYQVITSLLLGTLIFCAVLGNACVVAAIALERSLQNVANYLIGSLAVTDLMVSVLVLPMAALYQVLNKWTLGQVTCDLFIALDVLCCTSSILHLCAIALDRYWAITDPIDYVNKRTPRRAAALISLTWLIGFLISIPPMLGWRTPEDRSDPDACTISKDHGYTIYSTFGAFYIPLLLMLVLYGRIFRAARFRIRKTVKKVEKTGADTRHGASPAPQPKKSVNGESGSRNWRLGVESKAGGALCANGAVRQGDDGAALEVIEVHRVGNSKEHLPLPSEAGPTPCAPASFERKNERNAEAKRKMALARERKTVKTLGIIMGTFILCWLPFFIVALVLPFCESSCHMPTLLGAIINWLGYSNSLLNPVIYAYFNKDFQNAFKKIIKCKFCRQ
Description: 5-HT1A, Radioligand Receptor Binding Assay
Membranes from CHO cells, expressing 5-HT1A human receptors were suspended in incubation buffer.
Binding assays were performed in MultiProbe 204 pipetting system (Packard), according to a predetermined mapping, consistent with the software Screen. The compounds were tested in singlicate at one concentration (10^−7 M) in a total volume of 1000 μl. 980 μl of diluted membranes, 10 μl DMSO or unlabelled ligand, and 10 μl of [^3H]-8-OH-DPAT (0.6-0.7 nM) were incubated for 60 minutes at 27° C. The reaction was stopped by rapid filtration through Tomtec Cell Harvester (48 wells) using Filtermat B (presoaked in 0.1% PEI) filters. Filters were washed with ice-cold 50 mM Tris-HCl (pH 7.4) buffer (9×700 μl), dried, covered with MeltiLex B/HS scintillator sheets (Wallac) and heated at 80° C. to 90° C. for about 10 minutes, transferred into plastic sample bags (Wallac), sealed and put into 1024 Beta Plate scintillation counter (Wallac). Non-specific binding was determined in the presence of 5-HT (10^−5 M).
as §1, with “compounds. The affinity values (IC50) for the compounds were obtained by a nonlinear least squares regression analysis on the basis of a one binding site model.” for “compounds.”

[3] = target: T3, 5-HT1A receptor (CHO/5-HT1A cells) (Homo sapiens, UniProt P08908); assay: 5-HT1A functional assay (cAMP); assay type: cell-based; conditions: 10 μM compound, % inhibition of the cAMP accumulation induced by 10 μM FSK, read-out: 5-HT1A cAMP % Inhibition (agonist activity)
T3 construct: expressed in transfected cells; host or cells: CHO/5-HT1A cells
T3 sequence (P08908 1-422): T2 sequence (P08908 1-422)
Description: 5-HT1A Functional Assay (cAMP)
CHO/5-HT1A cells were random seeded at a density of about 200,000/well in 24 well plates the day prior to the experiment. On the day of the experiment, cells were pretreated for 15 minutes at 37° C. with 500 μM isobutylmethylxantine (IBMX) dissolved in culture medium without serum. Wells were then divided in different groups in duplicate as follows: control, 10 μM FSK, 10 μM FSK+1 μM 5-HT as positive standard and 10 μM FSK+10 μM of the different compound under evaluation. Sample solutions were added and incubated for additional 15 minutes at 37° C. After incubation, medium was aspirated and the reaction stopped by adding 200 μl of lysis buffer. Plates were shaken for 5 minutes, then the lysate was removed and samples were stored at 4° C. until the day of the assay. For the cAMP evaluation, samples were properly diluted and the cAMP content was measured by an enzyme immunoassay system.
Results are expressed as % inhibition of the cAMP accumulation induced by 10 μM FSK.

Question: Which inhibition at 0.1 µM [1] does the source give for `CCCn1c(=O)n(C/C=C/CN2CC=C(c3ccccc3)CC2)c2ccccc21` [Compound 112] here?
Answer: 43%

Question: What about the IC50 [2] of the same molecule?
Answer: 13 nM

Question: And the inhibition at 0.1 µM ([2]; compound 10^−7 M, singlicate, membranes from CHO cells, [3H]-8-OH-DPAT 0.6-0.7 nM)?
Answer: 87%

Question: What about the inhibition at 10 µM [3] of the same molecule?
Answer: 9%
